Test results from US11633497B2, “Anti-c-Met antibody drug conjugates” (AbbVie Inc., priority 2021, dated 2023).
Like-named read-outs stand apart in the source and are kept apart here.

What was measured:
[1] = system: Calu-6 cells (lung adenocarcinoma); test: Cell proliferation, CellTiter-Glo luminescence, Calu-6; type: cell-based; conditions: Homo sapiens
Experimental: The effect of TOP1i drugs on cell viability was assessed by monitoring ATP presence for metabolically active cells. Proliferation of Calu-6 cells (lung adenocarcinoma) and A375 cells (malignant melanoma) were quantified using CellTiter-Glo® luminescence.

[2] = system: A375 cells (malignant melanoma); test: Cell proliferation, CellTiter-Glo luminescence, A375; type: cell-based; conditions: Homo sapiens, A-375, read-out: TOP1i Compound Potency EC50, A375
Excerpt: Proliferation of Calu-6 cells (lung adenocarcinoma) and A375 cells (malignant melanoma) were quantified using CellTiter-Glo® luminescence.

Structure (SMILES)	EC50 ([1]; Calu-6 cell viability, CellTiter-Glo, read-out: TOP1i Compound Potency EC50, Calu-6) [nM]	EC50 ([1]; Calu-6, read-out: TOP1i Compound Potency EC50, Calu-6) [nM]	EC50 [2] [nM]
CCc1c2c(nc3ccc(O)cc13)-c1cc3c(c(=O)n1C2)COC(=O)[C@]3(O)CC [SN-38, reference compound]	6.58		
CC[C@@]1(O)C(=O)OCc2c1cc1n(c2=O)Cc2c-1nc1cc3c(cc1c2C12CC(N)(C1)C2)OCO3 [Example 1G, (7S)-14-(3-aminobicyclo[1.1.1]pentan-1-yl)-7-ethyl-7-hydroxy-2H,10H-[1,3]dioxolo[4,5-g]pyrano[3′,4′:6,7]indolizino[1,2-b]quinoline-8,11(7H,13H)-dione]		0.57	0.5
